From US20140309184A1, “METHODS AND COMPOSITIONS FOR THE TREATMENT OF OVARIAN CANCER” (UNIVERSITY OF SOUTH ALABAMA, priority 2011, published 2014)

Legend:
[1] = MTD for combination therapy; format: in vivo; conditions: BMS-833923 + carboplatin given together; previously demonstrated
Excerpt: Treatment with BMS-833923 appeared to have little effect on the growth of A2780 xenografts in vivo.

SHH = experiment: Quantitative real time PCR in carboplatin treated SKOV3 cells; format: cell-based; conditions: SKOV3, various concentrations of carboplatin
Description: SKOV3 cells were treated with various concentrations of carboplatin and the levels of SHH, Smo, PTCH, and Gli1 determined using quantitative real time PCR. Carboplatin treatment unregulated SHH (FIG. 14).

CP2780 xenografts = experiment: Xenograft tumor growth, carboplatin-resistant model; format: in vivo; conditions: SCID mice; BMS-833923 100 mg/kg i.p. daily, Carboplatin 40 mg/kg i.p. twice a week, two weeks
Description: (§1) Female SCID mice 6-8 weeks old were inoculated i.p. with 5×10^6 A2780 or A2780/CP70 cells suspended in 200 μL PBS (PH 7.4). Seven days later when the tumor reached a size of greater than 150 mm^3, the mice were randomly divided into 4 groups (8 mice per group) as follows: (1) PBS-treated control; (2) BMS-833923 alone (100 mg/kg, i.p. daily, two weeks); (3) Carboplatin alone (40 mg/kg, i.p. twice a week, two weeks); (4) Combination of BMS-833923 and Carboplatin treatment. Mice were weighed and tumor diameters were measured with calipers every 2-3 days for 20 days. The tumor volumes (mm^3) were calculated as (W^2×L)/2, where W and L are the minor and major diameters (in millimeters), respectively.
(§2) Xenograft experiments were performed as described above. Carboplatin was dosed days 7, 11, 14, 18; BMS-833923 was dosed days 8 through 20. The experiment was terminated due to excessive tumor size in vehicle and BMS-833923 treatment groups.
The CP2780 was derived from the A2780 Ovarian tumor xenograft model by selection for resistance to cisplatin. The CP2780 growth appeared to be more robust than observed for parental A2780 model (FIG. 12B). Average tumor volume doubling time for CP2780 was estimated at 2 days. Doubling time for parental A2780 tumor model was estimated at 3 days. […]

A2780/CP70 cells = experiment: Carboplatin IC50 with and without BMS-833923 in platinum resistant cell line; format: cell-based
Description: (§3) Considering the synergy described above and that the Hedgehog pathway is associated with cancer stem cell properties. In the effect of BMS-833923 plus carboplatin in two isogenic ovarian cancer cell lines specifically designed to evaluate platinum resistance mechanisms: A2780 (platinum sensitive) & A2780/CP70 (platinum resistant). Each cell line was evaluated to determine the IC50 dose of carboplatin to ensure a discernable difference in platinum treatment could be determined (FIG. 11A). The A2780/CP70 cell line required a 4-fold increase in carboplatin to reach IC50 (A2780/CP70=400 μM; A2780=100 μM). […] (FIG. 11B and FIG. 11C).

[2] = Percent body weight change in xenograft experiments; format: in vivo, SCID mice; conditions: xenograft mice; BMS-833923 100 mg/kg i.p. daily, Carboplatin 40 mg/kg i.p. twice a week
Description: as §1
Xenograft experiments were performed as described above. […] However, under such dosage (100 mg/kg, i.p. daily, for two weeks), treatment with BMS-833923 appeared to have little effect on the growth of A2780 or A2780/CP70 xenografts in vivo (FIG. 13). […] However, this dosage has little effect on the growth of CP2780 xenografts in vivo.

SKOV3 cells = experiment: MTS cell survival with BMS-833923 plus chemotherapy, Calcusyn combination index; format: cell-based
Description: An MTS in vitro assay was performed using chemotherapy agents commonly used for ovarian cancer (carboplatin, paclitaxel, gemcitabine, topotecan and liposomal doxorubicin) with or without BMS-833923. Ovarian cancer cells ES2, SKOV3, OV90 and TOV112D were seeded at a density of 4,000 cells/well in 96-well tissue culture plates. The following day, fresh medium was added to each well and treated with IC50 concentrations of BMS-833923 as well as the aforementioned chemotherapies and kept at 37° C. in a humidified 5% CO2 atmosphere. Every 24 hr, 20 μl/well of MTS reagent were added in 96 well plates and stored in 37° C. incubator for about 3 hr followed by absorbance reading at 490 nm. The assay was carried out up to 72 hrs at various concentrations described herein.
With a cross-diagonal multidrug treatment design, the combination index (CI) was calculated to determine mathematical synergy using the median effect method per Calcusyn software (Biosoft, Ferguson, Mo.). This software utilizes multiple drug dose-effect calculations using the Median Effect methods (Chou T. C., et al., Trends Pharmacol. Sci. 4, 450-454). […] The fraction of cells affected (Fa) by carboplatin and BMS-833923 was used to calculate dose response curves and the CI. Statistically Calcusyn quantifies phenomena such as synergism vs. additive effects as well as inhibition (antagonism). Calcusyn software defines synergy as a CI value<1 with the extent of synergism stratified as follows: Possible Synergy: 1.0-0.91; Moderate Synergy: […]; and Clear Synergy: 0.7-0.3. A CI=1 may be indicative of additivity; a CI>1 may be indicative of antagonism.
Combination indices were calculated to determine mathematical synergy using the median effect method per Calcusyn software (Biosoft, Ferguson, Mo.) as described above. Monolayers of SKOV3 cells were contacted with various chemotherapeutic agents, and BMS-833923 in combination with various chemotherapeutic agents. The chemotherapeutic agents included Carboplatin, Taxol™, Gemzar™, Topotecan (Hycamtim™), and Doxil™. The percentage survival of the contacted SKOV3 cells was measured over 72 hours. Synergistic effects were calculated statistically using Calcusyn™ Software. A combination index (CI) less than 1 indicates synergy; a CI equal to 1 indicates additivity; a CI greater than 1 indicated antagonism.
Combination indices were calculated to determine mathematical synergy using the median effect method per Calcusyn software (Biosoft, Ferguson, Mo.) as described above. […] Per prior definitions this represents Clear Synergy defined as CI<0.7. This level of synergy would result in a 2- to 14-fold reduction of carboplatin dose required with the addition of BMS-833923. (Table 5 and FIG. 9).
The dose reduction index (DRI) was determined for experimental values using the Calcusyn software package, with the relative CI and the fraction affected to determine the relative reduction in a dose to achieve similar effects with a single agent (Table 6).

A2780 cells = experiment: Carboplatin IC50 in platinum sensitive cell line; format: cell-based; conditions: read-out: IC50 dose of carboplatin
Description: as §3

A2780 xenografts = experiment: Xenograft tumor growth, carboplatin-sensitive model; format: in vivo; conditions: SCID mice; BMS-833923 100 mg/kg i.p. daily, Carboplatin 40 mg/kg i.p. twice a week, two weeks
Description: as §1, §2

**Q.** For `N.N.O=C([O-])C1(C(=O)[O-])CCC1.[Pt+2]` [Carboplatin, carboplatin], which “MTD for combination therapy” value [1] is on record?
**A.** 40 mg/kg

**Q.** What about the “SHH mRNA level” value (SHH) of the same compound?
**A.** unregulated

**Q.** What about the “effect on growth of CP2780 (A2780/CP70) xenografts in vivo” value (CP2780 xenografts) of the same compound?
**A.** little effect

**Q.** And the “increase in carboplatin to reach IC50, A2780/CP70 versus A2780” value (A2780/CP70 cells)?
**A.** 4 fold

**Q.** What about the IC50 (A2780/CP70 cells; A2780/CP70 (platinum resistant), read-out: IC50 dose of carboplatin) of the same compound?
**A.** 400 µM

**Q.** What about the “Percent body weight change” value [2] of the same compound?
**A.** Combination<Carboplatin alone<BMS-833923 alone

**Q.** And the “Carboplatin DRI” value (SKOV3 cells; fraction affected 16.6%)?
**A.** 14.869

**Q.** What about the “Carboplatin single agent dose to achieve the fraction affected” value (SKOV3 cells; fraction affected 16.6%) of the same compound?
**A.** 892.1349 µM

**Q.** What about the “Carboplatin DRI” value (SKOV3 cells; fraction affected 29.1%) of the same compound?
**A.** 8.06e+006

**Q.** What about the “Carboplatin single agent dose to achieve the fraction affected” value (SKOV3 cells; fraction affected 29.1%) of the same compound?
**A.** 5.642e+08 µM

**Q.** And the “Carboplatin DRI” value (SKOV3 cells; fraction affected 38.4%)?
**A.** 2.07e+010

**Q.** What about the “Carboplatin single agent dose to achieve the fraction affected” value (SKOV3 cells; fraction affected 38.4%) of the same compound?
**A.** 1.243e+12 µM

**Q.** And the “Carboplatin DRI” value (SKOV3 cells; fraction affected 41.8%)?
**A.** 2.45e+011

**Q.** What about the “Carboplatin single agent dose to achieve the fraction affected” value (SKOV3 cells; fraction affected 41.8%) of the same compound?
**A.** 1.716e+13 µM

**Q.** And the IC50 (A2780 cells)?
**A.** 100 µM

**Q.** What about the “effect on growth of A2780 xenografts in vivo” value (A2780 xenografts) of the same compound?
**A.** inhibited growth
